US11214565B2, “Compound, compositions, and methods” (Denali Therapeutics Inc., priority 2015, dated 2022)

Target: LRRK2 G2019S enzyme (Homo sapiens (Human), UniProt Q5S007, G2019S)
Experiment: LRRK2 G2019S TR-FRET biochemical kinase assay (LRRKtide substrate)
Details: 5 nM LRRK2, 134 μM ATP, 60 minute reaction, 23° C.
Method: LRRK2 G2019S enzyme, Substrate (LRRKtide), ATP, TR-FRET dilution buffer, pLRRKtide antibody, 384-well assay plate, and DMSO.
50 mM Tris pH 7.5, 10 mM MgCl2, 1 mM EGTA, 0.01% Brij-35, 2 mM DTT, 5 nM LRRK2, 134 μM ATP, 60 minute reaction time, 23° C. reaction temperature, and 10 μL total reaction volume.
1×TR-FRET dilution buffer, 10 mM EDTA, 2 nM antibody, 23° C. reaction temperature, and 10 μL total reaction volume.
Compound solutions were prepared by initially diluting to 1 mM with DMSO. 35 μL of reference compound solution, 35 μL of test compound solution, and 35 μL HPE were successively added to the source plate (384-well assay plate, Labcyte). The plates were centrifuged at 2500 rpm for 1 minute and sealed in foil. POD was used to perform a 3.162 fold serial dilution and 100 nL of reference compound solution, test compound solution, HPE and ZPE were transferred to assay plates. The assay plate was centrifuged at 2500 rpm for 1 minute, and sealed with foil.
To perform the enzyme reaction, 5 μL of LRRKtide substrate and kinase mixture in assay buffer was added to all wells of the assay plate. The plate was centrifuged to concentrate the mixture at the bottom of the wells. The assay plate was incubated at 23° C. for 20 minutes. Following incubation, 5 μL of 2×ATP in assay buffer was added to each well, and plates were centrifuged to concentrate the mixture at the bottom of the wells. The plate was incubated at 23° C. for 60 minutes.
To perform the detection of the reaction, EDTA completely mixed in TR-FRET dilution buffer was added to antibody reagent. 10 μL of detection reagent was added to all wells of each well of the assay-plate and the plate was centrifuged to concentrate the mixture at the bottom of the wells. The plate was then incubated at 23° C. for 60 minutes. Plates were read on Perkin Elmer Envision 2104 instrument in TR-FRET mode using a 340 nm excitation filter, 520 nm fluorescence emission filter, and 490 or 495 nm terbium emission filter.
B-2, C2, and D-4 respectively.

LRRK2 G2019S enzyme, sequence (Q5S007 whole entry G2019S): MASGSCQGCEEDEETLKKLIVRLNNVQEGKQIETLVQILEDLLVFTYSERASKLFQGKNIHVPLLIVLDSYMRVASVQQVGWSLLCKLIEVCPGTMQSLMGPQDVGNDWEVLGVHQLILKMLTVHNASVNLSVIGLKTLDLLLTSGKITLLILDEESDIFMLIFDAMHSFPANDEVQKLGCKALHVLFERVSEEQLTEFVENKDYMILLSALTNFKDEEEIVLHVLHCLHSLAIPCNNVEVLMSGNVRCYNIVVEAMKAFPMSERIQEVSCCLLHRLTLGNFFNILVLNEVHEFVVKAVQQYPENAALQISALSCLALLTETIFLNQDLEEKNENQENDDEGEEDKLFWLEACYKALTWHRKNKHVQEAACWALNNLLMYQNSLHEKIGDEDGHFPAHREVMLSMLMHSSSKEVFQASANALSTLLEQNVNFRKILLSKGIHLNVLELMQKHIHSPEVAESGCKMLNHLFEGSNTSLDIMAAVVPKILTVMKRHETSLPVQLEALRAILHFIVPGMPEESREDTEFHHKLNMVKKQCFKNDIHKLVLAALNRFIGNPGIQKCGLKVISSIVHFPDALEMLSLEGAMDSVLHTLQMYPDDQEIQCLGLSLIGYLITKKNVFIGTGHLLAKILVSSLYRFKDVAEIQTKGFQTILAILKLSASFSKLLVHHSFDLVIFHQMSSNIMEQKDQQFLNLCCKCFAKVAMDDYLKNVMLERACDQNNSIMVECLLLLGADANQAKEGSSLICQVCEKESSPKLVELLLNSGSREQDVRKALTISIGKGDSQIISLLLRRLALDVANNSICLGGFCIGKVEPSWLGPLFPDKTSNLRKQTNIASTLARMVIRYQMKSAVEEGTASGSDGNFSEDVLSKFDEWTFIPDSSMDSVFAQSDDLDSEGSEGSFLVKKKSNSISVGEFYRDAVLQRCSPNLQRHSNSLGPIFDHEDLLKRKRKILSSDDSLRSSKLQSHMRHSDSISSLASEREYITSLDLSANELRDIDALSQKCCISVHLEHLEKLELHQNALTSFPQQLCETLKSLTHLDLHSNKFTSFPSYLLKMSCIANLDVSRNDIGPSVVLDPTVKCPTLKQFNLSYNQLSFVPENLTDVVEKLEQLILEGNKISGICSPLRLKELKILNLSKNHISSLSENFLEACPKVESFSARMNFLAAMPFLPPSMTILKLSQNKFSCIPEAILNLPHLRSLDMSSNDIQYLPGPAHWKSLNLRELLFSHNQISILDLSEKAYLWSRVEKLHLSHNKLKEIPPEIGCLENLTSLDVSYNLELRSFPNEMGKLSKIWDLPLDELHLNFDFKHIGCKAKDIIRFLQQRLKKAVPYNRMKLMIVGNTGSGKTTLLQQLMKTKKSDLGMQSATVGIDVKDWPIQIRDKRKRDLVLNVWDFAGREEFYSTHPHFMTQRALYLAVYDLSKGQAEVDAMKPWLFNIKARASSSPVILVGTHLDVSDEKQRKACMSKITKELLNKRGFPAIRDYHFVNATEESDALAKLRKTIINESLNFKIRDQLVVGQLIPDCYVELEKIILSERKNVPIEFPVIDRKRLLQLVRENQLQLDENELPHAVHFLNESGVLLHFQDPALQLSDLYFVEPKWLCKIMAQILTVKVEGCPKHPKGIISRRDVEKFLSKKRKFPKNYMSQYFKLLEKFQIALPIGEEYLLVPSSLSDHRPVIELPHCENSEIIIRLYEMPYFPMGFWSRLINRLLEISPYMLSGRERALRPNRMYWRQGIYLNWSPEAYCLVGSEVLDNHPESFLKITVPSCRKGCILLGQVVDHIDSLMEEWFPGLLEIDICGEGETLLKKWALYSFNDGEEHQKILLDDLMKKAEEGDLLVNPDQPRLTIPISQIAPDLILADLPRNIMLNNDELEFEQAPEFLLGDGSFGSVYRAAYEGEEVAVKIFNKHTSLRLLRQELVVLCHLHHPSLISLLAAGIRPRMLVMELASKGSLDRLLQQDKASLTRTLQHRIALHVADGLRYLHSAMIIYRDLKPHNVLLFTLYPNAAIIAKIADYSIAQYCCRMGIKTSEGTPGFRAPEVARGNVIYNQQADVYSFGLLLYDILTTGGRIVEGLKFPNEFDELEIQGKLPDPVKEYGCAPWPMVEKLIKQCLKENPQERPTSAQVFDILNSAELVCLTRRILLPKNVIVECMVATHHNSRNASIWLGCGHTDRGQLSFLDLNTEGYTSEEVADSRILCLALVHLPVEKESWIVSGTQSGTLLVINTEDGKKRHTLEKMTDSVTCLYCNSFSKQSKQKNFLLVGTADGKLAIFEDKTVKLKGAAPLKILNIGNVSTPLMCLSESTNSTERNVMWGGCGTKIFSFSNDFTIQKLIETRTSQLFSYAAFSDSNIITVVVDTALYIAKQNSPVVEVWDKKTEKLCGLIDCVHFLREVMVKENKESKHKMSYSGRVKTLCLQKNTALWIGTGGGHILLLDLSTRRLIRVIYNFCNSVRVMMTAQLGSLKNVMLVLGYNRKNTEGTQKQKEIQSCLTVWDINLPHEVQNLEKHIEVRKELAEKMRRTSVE

## Cc1nn(CC(C)(C)O)cc1Nc1ncc(C(F)(F)F)c(C2CC2)n1 [Compound A-19, 1-[4-[[4-cyclopropyl-5-(trifluoromethyl)pyrimidin-2-yl]amino]-3-methyl-pyrazol-1-yl]-2-methyl-propan-2-ol]
Table A-2
  IC50: 30 to 60 nM

## CCNc1nc(Nc2cn(C3CCn4ccnc43)nc2C)ncc1C(F)(F)F (single isomer, unassigned) [Compound D-24, N2-(1-(6,7-dihydro-5H-pyrrolo[1,2-a]imidazol-7-yl)-3-methyl-1H-pyrazol-4-yl)-N4-ethyl-5-(trifluoromethyl)pyrimidine-2,4-diamine]
Table D-4
  IC50: < 30 nM

## Cc1c(Nc2ncc(Cl)c(C3CC3)n2)cnn1C(CF)CF [Compound A-43, 5-chloro-4-cyclopropyl-N-[1-[2-fluoro-1-(fluoromethyl)ethyl]-5-methyl-pyrazol-4-yl]pyrimidin-2-amine]
Table A-2
  IC50: < 30 nM

## Cc1nn(C(C)(C)c2ncn(C)n2)cc1Nc1ncc(C(F)(F)F)c(C2CC2)n1 [Compound A-8, 4-cyclopropyl-N-(3-methyl-1-(2-(1-methyl-1H-1,2,4-triazol-3-yl)propan-2-yl)-1H-pyrazol-4-yl)-5-(trifluoromethyl)pyrimidin-2-amine]
Table A-2
  IC50: < 30 nM

## CCNC(=O)C(F)(F)n1cc(Nc2ncc(C(F)(F)F)c(NCC)n2)c(C)n1 [Compound D-76]
Table D-4
  IC50: < 30 nM

## Cc1cn(C)nc1Nc1cc(C2CC2)c2c(C#N)c[nH]c2n1 [Compound C-20, 4-cyclopropyl-6-((1,4-dimethyl-1H-pyrazol-3-yl)amino)-1H-pyrrolo[2,3-b]pyridine-3-carbonitrile]
Table C-2
  IC50: < 50 nM

## Cc1c(Nc2nc(C3CC3)c3nc[nH]c3n2)cnn1C1CC1 [Compound C-49]
Table C-2
  IC50: < 50 nM

## COc1nc(Nc2cn(C3CCn4ccnc43)nc2C)ncc1C(F)(F)F [Compound D-127]
Table D-4
  IC50: < 30 nM

## CCNc1nc(Nc2cn(CCOC(F)F)nc2C)ncc1C(F)(F)F [Compound D-16, N2-[1-[2-(difluoromethoxy)ethyl]-3-methyl-pyrazol-4-yl]-N4-ethyl-5-(trifluoromethyl)pyrimidine-2,4-diamine]
Table D-4
  IC50: < 30 nM

## Cc1c(Nc2nc(C3CC3)c3cc[nH]c3n2)cnn1C [Compound C-25]
Table C-2
  IC50: < 50 nM

## Cc1c(Nc2nc(C3CC3)c3nc[nH]c3n2)cnn1C(F)F [Compound C-4, 6-cyclopropyl-N-(1-(difluoromethyl)-5-methyl-1H-pyrazol-4-yl)-9H-purin-2-amine]
Table C-2
  IC50: < 50 nM

## CNc1nc(Nc2cn([C@H]3C[C@@H](n4cccn4)C3)nc2C)ncc1C(F)(F)F [Compound D-27, cis-N4-methyl-N2-[3-methyl-1-(3-pyrazol-1-ylcyclobutyl)pyrazol-4-yl]-5-(trifluoromethyl)pyrimidine-2,4-diamine]
Table D-4
  IC50: < 30 nM

## CNc1nc(Nc2cnn(CC3(CC#N)CC3)c2Cl)ncc1C(F)(F)F [Compound D-33, 2-(1-((5-chloro-4-((4-(methylamino)-5-(trifluoromethyl)pyrimidin-2-yl)amino)-1H-pyrazol-1-yl)methyl)cyclopropyl)acetonitrile]
Table D-4
  IC50: < 30 nM

## CCNc1nc(Nc2cn(C3CCn4ccnc43)nc2C)ncc1C(F)(F)F (single isomer, unassigned) [Compound D-23, N2-(1-(6,7-dihydro-5H-pyrrolo[1,2-a]imidazol-7-yl)-3-methyl-1H-pyrazol-4-yl)-N4-ethyl-5-(trifluoromethyl)pyrimidine-2,4-diamine]
Table D-4
  IC50: > 60 nM

## Cc1c(Nc2ncc(C(F)(F)F)c(NCC(F)F)n2)cnn1[C@H]1C[C@H](n2nccn2)C1 [Compound D-75]
Table D-4
  IC50: < 30 nM

## CNc1nc(Nc2cnn([C@H]3C[C@H](n4cnc(C)n4)C3)c2C)ncc1C(F)(F)F [Compound D-108]
Table D-4
  IC50: < 30 nM

## CNc1nc(Nc2cnn(C(C)COC(F)F)c2C)ncc1C(F)(F)F [Compound D-70]
Table D-4
  IC50: < 30 nM

## CSc1nc(Nc2cn(C(C)(C)C#N)nc2C)ncc1C(F)(F)F [Compound D-46, 2-methyl-2-[3-methyl-4-[[4-methylsulfanyl-5-(trifluoromethyl)pyrimidin-2-yl]amino]pyrazol-1-yl]propanenitrile]
Table D-4
  IC50: 30 to 60 nM

## CNc1nc(Nc2cnn(CC3(COC)CC3)c2Cl)ncc1C(F)(F)F [Compound D-12, N2-[5-chloro-1-[[1-(methoxymethyl)cyclopropyl]methyl]pyrazol-4-yl]-N4-methyl-5-(trifluoromethyl)pyrimidine-2,4-diamine]
Table D-4
  IC50: < 30 nM

## CNc1nc(Nc2cn(C3CCn4c(Cl)cnc43)nc2C)ncc1C(F)(F)F [Compound D-99]
Table D-4
  IC50: < 30 nM

## CNc1nc(Nc2cn([C@H]3C[C@@H](S(C)(=O)=O)C3)nc2C)ncc1C(F)(F)F [Compound D-28, cis-N4-methyl-N2-[3-methyl-1-(3-methylsulfonylcyclobutyl)pyrazol-4-yl]-5-(trifluoromethyl)pyrimidine-2,4-diamine]
Table D-4
  IC50: < 30 nM

## Cc1nn(C(F)(F)C(N)=O)cc1Nc1ncc(C(F)(F)F)c(C2CC2)n1 [Compound A-87]
Table A-2
  IC50: < 30 nM

## CCNc1nc(Nc2cn(C3CCn4ccnc43)nc2Cl)ncc1C(F)(F)F [Compound D-62]
Table D-4
  IC50: > 60 nM

## Cc1nn(C(C)(C)C#N)cc1Nc1nc(C2CC2)c2cc[nH]c2n1 [Compound C-23]
Table C-2
  IC50: < 50 nM

## CCSc1nc(Nc2cn(C(C)(C)C#N)nc2C)ncc1C(F)(F)F [Compound D-45, 2-[4-[[4-ethylsulfanyl-5-(trifluoromethyl)pyrimidin-2-yl]amino]-3-methyl-pyrazol-1-yl]-2-methyl-propanenitrile]
Table D-4
  IC50: < 30 nM

## Cc1nn([C@@](C)(C(N)=O)C(F)F)cc1Nc1ncc(C(F)(F)F)c(C2CC2)n1 [Compounds A-96]
Table A-2
  IC50: < 30 nM

## Cc1nn(C(C)(C)c2nc[nH]n2)cc1Nc1ncc(C(F)(F)F)c(C2CC2)n1 [Compound A-58, N-(1-(2-(1H-1,2,4-triazol-3-yl)propan-2-yl)-3-methyl-1H-pyrazol-4-yl)-4-cyclopropyl-5-(trifluoromethyl)pyrimidin-2-amine]
Table A-2
  IC50: < 30 nM

## CCNc1nc(Nc2cn(C(F)(F)C(=O)O)nc2C)ncc1C(F)(F)F [Compound D-161]
Table D-4
  IC50: < 30 nM

## Cc1nn(C2(c3ncn(C)n3)CC2)cc1Nc1ncc(C(F)(F)F)c(C2CC2)n1 [Compound A-52, 4-cyclopropyl-N-[3-methyl-1-[1-(1-methyl-1,2,4-triazol-3-yl)cyclopropyl]pyrazol-4-yl]-5-(trifluoromethyl)pyrimidin-2-amine]
Table A-2
  IC50: > 60 nM

## Cc1c(Nc2ncc(C(F)(F)F)c(NCC(F)F)n2)cnn1[C@H]1C[C@@H](n2cccn2)C1 [Compound D-63]
Table D-4
  IC50: < 30 nM

## Cc1nn(C(CF)CF)cc1Nc1nc(C2CC2)c2c(C#N)c[nH]c2n1 [Compound C-12, 4-cyclopropyl-2-[[1-[2-fluoro-1-(fluoromethyl)ethyl]-3-methyl-pyrazol-4-yl]amino]-7H-pyrrolo[2,3-d]pyrimidine-5-carbonitrile]
Table C-2
  IC50: < 50 nM

## Cn1ccc(Nc2cc(C3CC3)c3nc[nH]c3n2)n1 [Compound C-17, 7-cyclopropyl-N-(1-methyl-1H-pyrazol-3-yl)-3H-imidazo[4,5-b]pyridin-5-amine]
Table C-2
  IC50: > 100 nM

## FC(F)(F)c1cnc(Nc2cnn([C@@H]3CN(C4COC4)CCC3(F)F)c2Cl)nc1C1CC1 (single isomer, unassigned) [Compound A-65, N-(5-chloro-1-(4,4-difluoro-1-(oxetan-3-yl)piperidin-3-yl)-1H-pyrazol-4-yl)-4-cyclopropyl-5-(trifluoromethyl)pyrimidin-2-amine]
Table A-2
  IC50: < 30 nM

## CCNc1nc(Nc2cnn([C@H]3C[C@H](c4nncs4)C3)c2C)ncc1C(F)(F)F [Compound D-89]
Table D-4
  IC50: < 30 nM

## CNc1nc(Nc2cn(CC3(CC#N)CC3)nc2C)ncc1C(F)(F)F [Compound D-1, 2-(1-((3-methyl-4-((4-(methylamino)-5-(trifluoromethyl)pyrimidin-2-yl)amino)-1H-pyrazol-1-yl)methyl)cyclopropyl)acetonitrile]
Table D-4
  IC50: > 60 nM

## Cc1nn(C(C)(C)c2ccn[nH]2)cc1Nc1ncc(C(F)(F)F)c(C2CC2)n1 [Compound A-67, 4-cyclopropyl-N-[3-methyl-1-[1-methyl-1-(1H-pyrazol-5-yl)ethyl]pyrazol-4-yl]-5-(trifluoromethyl)pyrimidin-2-amine]
Table A-2
  IC50: < 30 nM

## [2H]C([2H])([2H])n1cnc(C(C)(C)n2cc(Nc3ncc(C(F)(F)F)c(C4CC4)n3)c(C)n2)n1 [Compound A-16, 4-cyclopropyl-N-[3-methyl-1-[1-methyl-1-[1-(trideuteriomethyl)-1,2,4-triazol-3-yl]ethyl]pyrazol-4-yl]-5-(trifluoromethyl)pyrimidin-2-amine]
Table A-2
  IC50: < 30 nM

## Cc1nn([C@](C)(C(N)=O)C(F)F)cc1Nc1ncc(C(F)(F)F)c(C2CC2)n1 [Compounds A-97]
Table A-2
  IC50: 30 to 60 nM
